Test results published in ChEMBL document CHEMBL1125807, “Synthesis and preliminary evaluation of (+)-CBI-indole2: an enhanced functional analog of (+)-CC-1065” (Bioorg Med Chem Lett, 1991).
≈ marks a conversion by molar mass, not a printed value. Where “and” joins values, the source holds several entries; their conditions need not be identical. Equal values may be shown once.

What was measured:
[1] = Relative stability based on solvolysis studies; type: physicochemical
Nucleic Acid [2] = assay: Relative fist order rate constant for alkylation at the high affinity site of DNA; type: functional
Nucleic Acid [3] = assay: Relative intensity of DNA alkylation at the high affinity alkylation site [5'-d(AATB)-3'] within w794 DNA at 4 degrees C, 24 h; type: functional
Nucleic Acid [4] = assay: Percent alkylation at the high affinity alkylation site [5'-d(AATB)-3'] within w794 DNA at 4 degrees C, 24 h; range is 5-10 %; type: functional
L1210 [5] = assay: Relative IC50 for in vitro cytotoxic activity against L1210 mouse lymphocytic leukemia; type: functional
L1210 [6] = assay: Inhibitory concentration required for 50% in vitro cytotoxic activity was determined against L1210 mouse lymphocytic leukemia at 40 pM; type: functional, cell-based
Mus musculus [7] = assay: In vivo antitumor activity of 10 ug/kg.day subcutaneously administered compound against Ip implanted L1210 tumor in mouse; type: functional
Mus musculus [8] = assay: In vivo antitumor activity of 19 ug/kg.day subcutaneously administered compound against Ip implanted L1210 tumor in mouse; type: functional
Mus musculus [9] = assay: In vivo antitumor activity of 29 ug/kg.day subcutaneously administered compound against Ip implanted L1210 tumor in mouse; type: functional
Mus musculus [10] = assay: In vivo antitumor activity of 39 ug/kg.day subcutaneously administered compound against Ip implanted L1210 tumor in mouse; type: functional
Mus musculus [11] = assay: In vivo antitumor activity of 75 ug/kg.day subcutaneously administered compound against P388 leukemia in mouse; type: functional
Mus musculus [12] = organism: Mus musculus; assay: Relative cytotoxic activity against mouse L1210 leukemia; type: functional
[13] = Half-life was determined; type: ADME; conditions: human
Nucleic Acid [14] = assay: Percent alkylation at the high affinity alkylation site [5'-d(AATB)-3'] within w794 DNA at 4 degrees C, 24 h; type: functional
L1210 [15] = assay: Inhibitory concentration required for 50% in vitro cytotoxic activity was determined against L1210 mouse lymphocytic leukemia at 10 pM; type: functional, cell-based
Mus musculus [16] = assay: Survivors at day 18 at 29 ug/kg.day; value is given as 1/6 and no evidence of residual tumor found.; type: functional, organism-based
Mus musculus [17] = assay: Survivors at day 18 at 39 ug/kg.day; value is given as 4/6 and no evidence of residual tumor found.; type: functional, organism-based
Mus musculus [18] = assay: In vivo antitumor activity of 5 ug/kg.day subcutaneously administered compound against Ip implanted L1210 tumor in mouse; type: functional

Row | Structure (SMILES) | Relative stability [1] | rel k (Nucleic Acid [2]) | Relative intensity (Nucleic Acid [3]) | DNA alkylation (Nucleic Acid [4]) | Cytotoxic activity (L1210 [5]) | IC50 (L1210 [6]) | T/C (Mus musculus [7]) | T/C (Mus musculus [8]) | T/C (Mus musculus [9]) | T/C (Mus musculus [10]) | T/C (Mus musculus [11]) | Relative cytotoxic activity (Mus musculus [12]) | half-life [13] | DNA alkylation (Nucleic Acid [14]) | IC50 (L1210 [15]) | Survivors (Mus musculus [16]) | Survivors (Mus musculus [17]) | T/C (Mus musculus [18])
1 | Cc1c[nH]c2c1C13CC1CN(C(=O)c1cc4cc(NC(=O)c5cc6ccccc6[nH]5)ccc4[nH]1)C3=CC2=O (single isomer, unassigned; (+)) | 0.27 | 0.07 | 0.1 | 10% | 0.25 | 0.02 ng/mL (≈ 0.0399 nM) | 114 and 133 | 113 | 118 | 129 | 259 | 0.25 | 36.7 h | – | – | – | – | –
2 | O=C(Nc1ccc2[nH]c(C(=O)N3C[C@H]4C[C@@]45C3=CC(=O)c3ccccc35)cc2c1)c1cc2ccccc2[nH]1 | 1 | 1 | 1 | – | 1 | – | 156 | 162 | >175 | >200 | – | 1 | 133 h | 93% | 0.005 ng/mL (≈ 0.01 nM) | No evidence of residual tumor found | No evidence of residual tumor found | 120
